Data on two compounds can be found in US20250340593A1, “METHOD AND COMPOSITION FOR TREATING NEURODEGENERATIVE DISORDER” (priority 2022, published 2025).

The target in assay [1] is T1, soluble Aβ species (monomers, LMW and HMW Aβo) (Homo sapiens, UniProt P05067).
T1 construct: purchased Bachem; host or cells: chemical synthesis
Kind of assay: Western blotting of soluble Aβ species (6E10 antibody). It is filed as biochemical. As for the experimental part:
Aβ preparations (1 μg) were subjected to immunoblotting analysis and separated on 4-12% gradient SDS-PAGE gels, prior to being transferred on nitrocellulose membranes. After a 45 minutes blocking step in Tris-buffered saline, 0.1% Tween, pH 7.6, 5% milk, membranes were immunoblotted overnight at 4° C. with the 6E10 anti-Ab antibody diluted in Tris-buffered saline, 0.1% Tween, pH 7.6, with 2% milk. Horseradish peroxidase (HRP)-conjugated secondary anti-mouse antibody was next applied for 1 h30 at room temperature. Proteins were visualized with an ECL detection system and band intensities quantified using a densitometric analysis with Image J software.

The target in assay [2] is T2, Aβo-VEGF interaction (recombinant human VEGF165) (Homo sapiens, UniProt P05067).
T2 construct: purchased Bachem
Kind of assay: Competitive ELISA of Aβo binding to immobilized VEGF. Particulars: for inhibition of the binding of Aβo to VEGF: biotinylated Aβ42 oligomers 2.1 μM, peptide 10 nM to 100 μM. As for the experimental part: Competitive ELISA experiments were performed to analyze the ability of the BP to impede AB42 oligomers binding to VEGF. For these assays, recombinant human VEGF165 (500 ng/ml-1) was immobilized in the 96-well microplate as the capture antigen and incubated overnight at 4° C. The following day, biotinylated AB42 oligomers were precubated at 2.1 μM for 1 h at RT with various concentrations of the CP or BP ranging from 10 nM to 100 μM. After 3 rinces with PBS 0.05% Tween 20, the mix was added in triplicate and incubated for 2 h at RT. Next, a washing step was performed followed by an incubation with the HRP-conjugated streptavidin for 20 min, additional rinces and finally the substrate solution containing TMB and H2O2. Absorbance was measured using a TECAN microplate reader.

A further assay deals with T3, monomeric Aβ42 (Homo sapiens, UniProt P05067).
T3 construct: purchased Bachem; host or cells: chemical synthesis
Kind of assay: Thioflavin-T assay of Aβ42 aggregation kinetics. It is filed as biochemical. The conditions noted are these: for inhibition of fibril formation (normalized ThT fluorescence): 15 μM monomeric Aβ, equimolar peptide, 24 hours; for ThT fluorescence of peptide alone: highest concentration of peptide alone, no Aβ. As for the experimental part:
Thioflavin-T (ThT) assays were performed in black polystyrene 384-well plates with transparent bottom using a Tecan microplate reader with a set of excitation/emission wavelengths of 450/490 nm. Monomeric Aβ42 was prepared as described above and blocking or control peptides (BP ou CP) were used at indicted concentrations, ranging from 0.5 to 15 μM. The final concentration of ThT and monomeric AB42 was used at 15 μM in PBS buffer (pH 7.4), with a total reaction volume per well of 110 μL. The plate was sealed with a transparent plastic film and incubated at 37° C. prior to fluorescence measurement. ThT fluorescence intensity was monitored every 5 min over 24 h at 37° C. without agitation. Three replicates per condition were measured.

For a further assay, the target named is T4, Aβ42 oligomers (Aβo) (Homo sapiens, UniProt P05067).
T4 construct: purchased Bachem; host or cells: chemical synthesis
The assay is described as follows: Indirect ELISA, binding of coated peptide to biotinylated Aβ42 oligomers. The conditions noted are these: peptide coated at 5 μM. Here is the method:
(§1) The binding of the CP or BP to synthetic biotinylated Aβ42 oligomers (Aβo) or AB40 monomers (Aβm) was determined by indirect ELISA in which the CP or BP were used as the capture antigens and the biotin tag of the biotinylated Aβ peptides for the detection. 96-well clear polystyrene microplate (BioTechne DY990) were coated overnight at 4° C. with 5 μM of the CP or BP in PBS, pH 7.4. After immobilization, the plate was washed three times with PBS 0.05% Tween 20 and various concentrations of biotinylated Aβ peptides were added in triplicate from 0.1 μg.mL-1 to 10 μg.mL-1 (21 nM to 2.1 μM for Aβo (42), 22 nM to 2.2 μM for Aβm (40) and incubated for 2 h at RT. After additional washes with PBS 0.05% Tween 20, HRP-conjugated streptavidin (1/40) was added for 20 min at RT, followed by a washing step and an incubation in substrate solution containing 3,3′,5,5′-Tetramethylbenzidine (TMB) and H2O2. The reaction was stopped by H2SO4. Absorbance was successively measured at 450 and 540 nm with a TECAN microplate reader and optical density values at 540 nm were subtracted from the ones at 450 nm to correct for optical imperfections of the plate. Unspecific Aβ binding to the microplate was determined using non-coated wells.

The target of the next assay is T5, AB40 monomers (Aβm) (Homo sapiens, UniProt P05067).
T5 construct: synthetic biotinylated Aβ42 oligomers (Aβo) or AB40 monomers (Aβm); purchased Bachem; host or cells: chemical synthesis
Kind of assay: Indirect ELISA, binding of coated peptide to biotinylated Aβ40 monomers. Here is the method:
as §1

Assay [3] has as its target T6, biotinylated Aβ42 oligomers (Aβo (42)) (Homo sapiens, UniProt P05067).
T6 construct: purchased Bachem; host or cells: chemical synthesis
The assay is described as follows: Peptide array probed with biotinylated Aβ42 oligomers. Type of assay: binding. The conditions noted are these: biotinylated Aβo 0.1 to 10 μg.mL-1, BP result at the lowest concentration (0.1 μg/ml-1). Here is the method: In the context of the invention, cellulose-bound peptide arrays encompassing the heparin binding domain and the C-terminal human VEGF sequence (UniProtKB #P15692) were synthesized by Proteomic Solutions. Overlapping 15-mer peptides were shifted by 3 aa and two copies of the same array were spotted on the slide for quality control and reproducibility. Arrays were blocked for 2 h in Tris buffered saline, 1% Tween 20, 5% BSA to prevent unspecific binding, and were subsequently probed for 15 h at 4° C. with biotinylated AB42 oligomers (Aβo (42)) using concentrations varying from 0.1 to 10 μg.mL-1 or vehicle used as a control. After washing in TBS 1% Tween 20, peptide arrays were incubated with HRP-conjugated Streptavidin for 2 h at RT. Aβo interaction was detected using SuperSignal West Pico PLUS chemiluminescent substrate and non-specific Aβ binding was determined using the control peptide (CP) spotted on the peptide array. […]
Cellulose-bound peptide arrays encompassing the heparin binding domain and the C-terminal human VEGF sequence (UniProtKB #P15692) were synthesized by Proteomic Solutions. […] Aβo interaction was detected using SuperSignal West Pico PLUS chemiluminescent substrate and non-specific Aβ binding was determined using the control peptide (CP) spotted on the peptide array. […]

[4] abbreviates: Aβ aggregated with peptide for 24 hours, compared to the two other conditions.

pKd, pKi: −log10 of the molar value. Residues, ends and D or L forms follow the SMILES beside them.

T3 sequence (P05067 672-713 limits assumed): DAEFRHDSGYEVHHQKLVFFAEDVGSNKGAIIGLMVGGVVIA
T1 sequence (P05067 672-713 limits assumed): as above
T2 sequence (P05067 672-713 limits assumed): as above
T4 sequence (P05067 672-713 limits assumed): as above
T6 sequence (P05067 672-713 limits assumed): as above
T5 sequence (P05067 672-711 limits assumed): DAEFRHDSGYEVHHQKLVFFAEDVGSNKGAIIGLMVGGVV

As to `CC(C)[C@H](NC(=O)[C@H](Cc1ccc(O)cc1)NC(=O)[C@@H](NC(=O)[C@H](CO)NC(=O)[C@H](Cc1c[nH]c2ccccc12)NC(=O)[C@H](CO)NC(=O)[C@H](CCCCN)NC(=O)[C@H](Cc1ccc(O)cc1)NC(=O)[C@H](CCCNC(=N)N)NC(=O)[C@H](CO)NC(=O)[C@H](CCCCN)NC(=O)[C@H](CCCCN)NC(=O)[C@H](CCCNC(=N)N)NC(=O)[C@@H](N)CCCCN)C(C)C)C(=O)NCC(=O)O` [BP, KRKKSRYKSWSVYVG] (H-KRKKSRYKSWSVYVG-OH; N-terminus and C-terminus assumed), the “fraction of LMW Aβo” value in assay [1] (Aβ aggregated with peptide for 2 hours, compared to Aβ alone and Aβ and CP) is on record as “significantly increased”. Also, the “amount of HMW Aβo” value in assay [1] (Aβ aggregated with peptide for 2 hours, compared to the Aβ alone condition) is reported as “significant decrease”. For the same compound, in assay [1] (setting [4]), the “LMW Aβo and Aβ monomers” value is “increase”; the “fraction of HMW Aβo” value is “significant decrease”. Besides, in assay [2], the pKi is 6.47 and the “inhibition of the binding of Aβo to VEGF” value is “clear dose-dependent reduction”. For the same compound, on monomeric Aβ42, the “inhibition of fibril formation (normalized ThT fluorescence)” value came out at 95% and the “ThT fluorescence of peptide alone” value was “does not induce any increase in ThT fluorescence”. Also, the “steepness of the exponential phase corresponding to Aβ42 nucleation” value at monomeric Aβ42 (peptide 0.5 to 15 μM, 15 μM Aβ42) was “decreases with increasing concentrations”. Also, the pKd at Aβ42 oligomers (Aβo) (ELISA titration binding curves) is 7.92. At AB40 monomers (Aβm), the negative logarithm of the Kd (pKd) was 4.72. Further, the “labeling of peptide spot by biotinylated Aβo” value in assay [3] is reported as “clear staining”.

On to NDYKDDDDKGAAA [CP, reference compound], for which the “inhibition of the binding of Aβo to VEGF” value in assay [2] is on record as “did not inhibit”. For the same compound, in the assay with monomeric Aβ42, the “inhibition of fibril formation (normalized ThT fluorescence)” value is “no significant effect” and the “ThT fluorescence of peptide alone” value was “does not induce any increase in ThT fluorescence”. The “binding to Aβo” value in the assay with Aβ42 oligomers (Aβo) (ELISA) was “fails to bind”. Also, the “binding to Aβm” value with AB40 monomers (Aβm) (ELISA, peptide coated at 5 μM) is “fails to bind”. The “labeling of peptide spot by biotinylated Aβo” value in assay [3] was “no labelling”.
